Data set [1] can be described thus: Solubility of polyenes and excipients in single solvents. In kind it is physicochemical. The procedure:
The solubility of amphotericin and excipients/additives of interest was determined in various solvents in an attempt to find a solvent system suitable for spray drying (i.e., having a sufficiently high vapor pressure) and capable of dissolving both amphotericin and any added excipients at an extent greater than about 10 mg/mL solvent. Although active agents can be spray-dried as suspensions, having the formulation components dissolved in solution provides resulting particles having a homogeneous composition (i.e., when comparing one particle to another particle)—that is to say, each particle in the composition has approximately the same composition and distribution of formulation components.
Amphotericin B is soluble in water at pHs lower than 3 and higher than 10, but only to a limited extent (0.2 mg/ml) —making the volume of solvent required for spray drying under these conditions too large to be reasonably handled. Thus, the following solubilities were experimentally determined to find a single (non-mixed) solvent system for spray drying representative amphotericin B and nystatin formulations.

Data set [2] is classed as physicochemical. As to conditions: for % AmB pH 3: MeOH pH 3, ice bath; for % AmB pH 4: MeOH pH 4, ice bath. An excerpt: The “extent of degradation” of a polyene is the percentage of polyene contained in the dry powder composition determined to be chemically modified from the intact starting material, as determined by a suitable chemical assay (e.g., NMR, HPLC, etc.); 100% of the polyene remaining chemically intact during the spray drying process represents an extent of degradation of 0%.
• Amphotericin B (Spectrum, New Brunswick, N.J.; Alapharma) • Nystatin (Spectrum, New Brunswick, N.J.) • Methanol dehydrated, HPLC grade (EM Industries, Gibbstown, N.J.) • Sodium Hydroxide, 50% (J. T. Baker, Phillipsburg, N.J.) • L-Leucine (Aldrich) • Hydrochloric Acid (J. T. Baker, Phillipsburg, N.J.) • Sodium Deoxycholate (Spectrum, New Brunswick, N.J.) Methods • Reverse Phase-HPLC • RP-HPLC analysis was performed on a Waters 2690HPLC system with a Waters Detector 996 (Skywalker, Inhale No.101232). The system was equipped with either a Vydac C-18 column or an YMC ODC-AQ™ C-18 column. Samples were eluted with a gradient mobile phases consisted of 10 mM sodium acetate buffer (mobile phase A) at pH 5 and CAN (mobile phase B). The flow rate was maintained at 1.0 ml/min, the detector wavelength was 383 nm, and the injection volume was 30μL (microliter). Stability Samples
(§1) In an attempt to reduce the extent of chemical degradation of amphotericin, while also finding solution conditions under which amphotericin B was reasonably soluble (e.g., to an extent greater than about 1 mg/mL), solubility experiments were conducted. The experiments were performed at room temperature for the first 2 hour while adjusting for solution pH. After the amphotericin B was completely dissolved, the samples were transferred to a 4° C. refrigerator for further chemical stability analysis. Table 7 summarizes the formulation details and apparent solubilities at specific pH conditions.
Solutions were prepared as follows. Amphotericin B (AmB) was added to MeOH (3 mg AmB/mL) at either room temperature or in an ice bath. […] The chemical stability of AmB was determined by an HPLC assay as a function of time over 24 hours.

Data set [3] is described as follows: Apparent solubility of AmB in pH-adjusted methanol. In kind it is physicochemical. As to conditions: for Solubility: 0 °C, MeOH. As for the experimental part:
as §1
Additional solubility of amphotericin B and stability of the representative formulation, R0140, was investigated. The solubility of amphotericin at pH 5 and at pH 4.7 was investigated; additionally, the chemical stability of amphotericin B at pH 4.8 was further examined. In these experiments, samples were placed in an ice bath during the formulation preparation.

For data set [4] the following is noted: cited from earlier work.

One may read the solubility as the dissolved amount per volume that the medium holds.

Values after ≈ are worked out from the molar mass of the structure shown. Read-outs that look alike come from different tables or passages of the source.

For `C[C@@H]1[C@H](O)[C@@H](C)/C=C/C=C/CC/C=C/C=C/C=C/C=C/C(O[C@H]2O[C@H](C)[C@@H](O)[C@H](N)[C@@H]2O)CC2O[C@](O)(CC(O)C(O)CCC(O)CC(O)CC(O)CC(=O)O[C@H]1C)CC(O)C2C(=O)O` (stereo partly drawn) [Nystatin], the Solubility in data set [1] (Acetone) is reported as 0.1 mg compound/g solvent; in data set [1] (Chloroform) it was 0.7 mg compound/g solvent; in data set [1] (DI Water), 1.1 mg compound/g solvent; in data set [1] (Ethanol), 0.8 mg compound/g solvent; in data set [1] (Ethyl Ether) it was 0.1 mg compound/g solvent; in data set [1] (Hexane), 0.0 mg compound/g solvent. In addition, the Solubility in data set [1] (IP Acetate) amounted to 0.1 mg compound/g solvent; in data set [1] (IPA), 0.1 mg compound/g solvent; in data set [1] (Isobutyl Alcohol), 0.5 mg compound/g solvent; in data set [1] (Meth. Chloride), 3.9 mg compound/g solvent; in data set [1] (Methanol), 11.0 mg compound/g solvent; in data set [1] (Pet. Ether) it was 0.0 mg compound/g solvent. For the same compound, the Solubility in data set [1] (THF) is reported as 1.6 mg compound/g solvent.
Consider `C[C@@H]1[C@H](O)[C@@H](C)/C=C/C=C/C=C/C=C/C=C/C=C/C=C/[C@H](O[C@@H]2O[C@H](C)[C@@H](O)[C@H](N)[C@@H]2O)C[C@@H]2O[C@](O)(C[C@@H](O)C[C@@H](O)[C@H](O)CC[C@@H](O)C[C@@H](O)CC(=O)O[C@H]1C)C[C@H](O)[C@H]2C(=O)O` [Amphotericin B], for which the “% AmB pH 3” value is 93% in data set [2] (4 hr), 90% in data set [2] (18.5 hr), 85% in data set [2] (26 hr) and 95% in data set [2] ([…]). Besides, the “% AmB pH 4” value was 94% in data set [2] (1 hr), 96% in data set [2] (4 hr), 97% in data set [2] (18.5 hr) and 93% in data set [2] (26 hr). The “% AmB” value in data set [2] (MeOH pH 4.8, in ice bath, 4 hr) was 99%; in data set [2] (MeOH pH 4.8, in ice bath, 6 hr), 97%; in data set [2] (MeOH pH 4.8, in ice bath, 8 hr) it was 94%; in data set [2] (MeOH pH 4.8, in ice bath, 24 hr), 97%; in data set [2] (MeOH pH 4.8, in ice bath, […]) it was 97%; in data set [2] (MeOH pH 4.8, room temperature, 4 hr), 85%. Also, the “% AmB” value in data set [2] (MeOH pH 4.8, room temperature, 6 hr) was determined as 83%; in data set [2] (MeOH pH 4.8, room temperature, 8 hr), 84%; in data set [2] (MeOH pH 4.8, room temperature, 24 hr) it was 78%; in data set [2] (MeOH pH 4.8, room temperature, […]), 89%. The “AmB (%)” value is “about 92%” in data set [2] (MeOH solution, T = 8 hr (4° C. after first 2 hr)) and 97% in data set [2] (MeOH, pH 4.8, in ice, during formulation preparation). In data set [2] (MeOH, pH 4.8, in ice), the “Main Peak %” value is on record as 92.0%. Moreover, the Solubility in data set [3] (pH 4.7, organic solvent or mixture, pH 4.7, in ice) is 3400 µg/mL (≈ 3.68 mM); in data set [3] (pH 5, organic solvent or mixture, pH 5.0, in ice), approximately 3000 µg/mL (≈ 3.25 mM). Further, in data set [3] (organic solvent or mixture, in MeOH, room temperature, pH of the formulation 4.4, 6.9 or 9.6), the solubility at 2 h is 2900 µg/mL (≈ 3.14 mM). Moreover, the Solubility in water entry in data set [4] (water at pH 6 to 7) was “insoluble”; in data set [4] (water at pHs lower than 3 and higher than 10), 200 µg/mL (≈ 0.216 mM).

The record behind these values is patent publication US7473433B2, “Pulmonary delivery of polyene antifungal agents” (priority 2000, dated 2009).
